Reference: patent US20060276416A1, “Methods and compositions for treating flushing and drug induced weight gain” (Sirtris Pharmaceuticals, Inc., priority 2005, published 2006)
Values joined by “and” are separate entries in the source; they are usually repeats but may differ in a detail not shown here. Equal entries are not always repeated. Blank lines part the entries; values can stand above or below the compound they belong to.

Columns and labels:
HepG2 cells = experiment: Oxidation of 14C-palmitate (14C-CO2 production); format: cell-based; conditions: resveratrol 10 μM, AICAR 500 μM, metformin 1 mM; 4 hours; vehicle 1
Method: (§1) Oxidation of ^14C-palmitate to acid-soluble products (modified from […] cells ([…]. and B. E. Kemp, J Biol Chem (1992) 267(5): 2864-7) and HepG2 cells were maintained as described above. Cells (10^6 cells/T25) were seeded in a T25 flask one day prior to the experiment. […] At the end of incubation, the cap of each […]per and a 1'×1.5'' Whatman filter paper soaked with 250 μl 2N NaOH. Each flask was injected with 2 ml of 6N HCL, placed in a horizontal position for 10 minutes and left standing overnight. […] The experiment was repeated three times.

H4IIEC3 cells = experiment: Oxidation of 14C-palmitate (14C-CO2 production); format: cell-based; conditions: resveratrol 10 μM, AICAR 500 μM, metformin 1 mM; 4 hours; vehicle 1
Method: as §1

[1] = tested on: AMPK at Thr172 and ACC at serine 79; experiment: AMPK and ACC phosphorylation Western in CHO-HIR cells; format: cell-based; conditions: AICAR 500 μM; resveratrol 12.5, 25 or 50 μM; 30 minutes
[2] = biological target: T1, SIRT1 deacetylase (BIOMOL) (Homo sapiens, UniProt Q96EB6); experiment: High-throughput SIRT1 screening protocol (Fluor de Lys-SIRT1, 384 well); format: biochemical; conditions: positive controls; roughly 50 μM, 200 μM NAD+, 5 μM Fluor de Lys-SIRT1
T1 construct: purchased BIOMOL
T1 sequence (Q96EB6 1-747): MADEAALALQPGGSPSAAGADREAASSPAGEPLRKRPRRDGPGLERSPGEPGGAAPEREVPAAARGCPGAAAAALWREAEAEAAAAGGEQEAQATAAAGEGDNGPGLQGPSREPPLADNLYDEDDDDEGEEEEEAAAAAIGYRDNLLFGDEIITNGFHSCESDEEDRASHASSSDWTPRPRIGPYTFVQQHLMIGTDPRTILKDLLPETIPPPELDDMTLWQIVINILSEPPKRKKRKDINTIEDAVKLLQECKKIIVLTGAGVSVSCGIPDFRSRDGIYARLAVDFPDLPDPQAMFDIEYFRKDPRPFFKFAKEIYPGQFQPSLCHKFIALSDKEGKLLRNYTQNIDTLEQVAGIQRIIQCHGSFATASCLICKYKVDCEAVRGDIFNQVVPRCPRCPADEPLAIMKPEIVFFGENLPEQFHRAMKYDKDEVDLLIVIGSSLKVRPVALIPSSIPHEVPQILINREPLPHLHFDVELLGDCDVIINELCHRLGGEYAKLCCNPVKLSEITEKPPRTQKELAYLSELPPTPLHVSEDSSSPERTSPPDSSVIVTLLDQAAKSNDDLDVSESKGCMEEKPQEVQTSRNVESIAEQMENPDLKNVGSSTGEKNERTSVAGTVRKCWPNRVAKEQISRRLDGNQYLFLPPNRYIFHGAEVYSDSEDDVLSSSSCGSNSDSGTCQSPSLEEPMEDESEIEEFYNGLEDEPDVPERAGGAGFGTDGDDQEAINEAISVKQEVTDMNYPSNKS
Method: The reaction mixture contains (final): 0.5 units/reaction SIRT1 deacetylase (BIOMOL); 200 μM NAD^+; 5 μM Fluor de Lys-SIRT1 substrate (BIOMOL); buffer (25 mM Tris/Cl, pH 8.0, 137 mM NaCl, 2.7 mM KCl, 1 mM MgCl2, and 1 mg/ml BSA). In addition, a reaction mixture containing no enzyme was made so that each well receiving compound has a corresponding “no enzyme control” well. Reactions were performed in black 384 well plates (NUNC) in a final volume of 25 μl/well.
The reactions were started by combining enzyme and substrate in a reaction mixture immediately prior to aliquoting in plates (or substrate only for “no enzyme control” plates). Mixture were aliquoted to plates using Biotek μFill (Biotek Instruments). Control mixtures were manually added to designated wells. A library compound was added at a desired concentration by pin transfer to both “with enzyme” and “no enzyme” plates. Compounds were added in at least triplicate (with enzyme reaction in duplicate and no enzyme controls) at a final concentration of roughly 50 μM. The plates were incubated at 37° C. for 30-60 minutes. Then 25 μl of 1× Developer II (BIOMOL) plus 2 mM nicotinamide were added to all wells to stop the reactions. The reactions were left for at least 30 minutes at 37° C. for the signal to develop. The plates were read in a microplate-reading fluorometer capable of excitation at a wavelength in the range of 350-380 nm and detection of emitted light in the range of 440-460 nm. A read time of 0.1 sec per well was used.

C. elegans = C. elegans fat accumulation, Nile Red staining; format: in vivo; conditions: for Concentration as low as which fat accumulation is reduced: 10, 50 and 100 μM tested
Method: Fat accumulation was visualized with Nile Red staining, as described further below and in Ashrafi K, et al. Nature 421:268-27 (2003).
Synchronized starved L1 worms were grown in the presence of Nile Red. Strains were grown on NGM plates at 25° C. for approximately 48 hours until the young adult stage was reached. 20-30 young adult worms were then washed 2× with M9 buffer and transferred to new NGM/Nile red experimental plates that contained either OP50 or HTT5 E. coli carrying the L4440 RNAi control vector.
Young adults were transferred to plates containing the appropriate vector, Nile Red stain and drug then maintained at 25° C.
Nile Red: Nile Red Powder (Sigma #N-3013) was dissolved in acetone at 500 μg/ml, diluted in 1× Phosphate Buffered Saline (PBS) including appropriate drug and applied to surface of Nematode Growth Media (NGM) plates previously seeded with OP50 or RNAi bacteria, at a final concentration of 0.05 μg/ml. Fat content was monitored and recorded by fluorescence microscopy.

D. melanogaster = D. melanogaster survival (lifespan) assay; format: in vivo
Method: Survival assays were conducted independently with adult D. melanogaster in two laboratories. In the first laboratory, all trials used an yw marked wild-type strain. Larvae were reared on standard cornmeal-sugar-yeast (CSY) agar diet (cornmeal 5%, sucrose 10.5%, SAF yeast 2%, and agar 0.7%). Newly eclosed adults were placed in 1 L demography cages with approximately 75 males and 75 females. Three to four replicate 1 L demography cages were used for each treatment group in each trial. Every two days, dead flies were removed and scored, and food vials were replenished. Food vials contained cornmeal-sugar-yeast diet with SAF yeast as either 2% or 3% by weight. Test compounds in 100 μl of EtOH (or blank EtOH in controls) were mixed into melted aliquots of the adult food media to make a final concentration of 0, 10 or 100 μM. Fresh stock solutions and adult media were prepared weekly. In the second laboratory, lifespan trials were conducted with the wild type strain Canton-S, dSir2^4.5 and dSir2^5.26 (S. Smolik, University of Oregon), dSir2^17 (S. Astrom, Stockholm University, Sweden), and dSir2^KG00871 (Drosophila Stock Center, Bloomington, Ind.). Larvae for all tests were reared on standard cornmeal-sugar-yeast diet. Newly eclosed adults were incubated in plastic shell vials containing 5 ml of 15% sugar-yeast diet (15% SY) or 5% sugar-yeast (5% SY) diet (15% SY: 15% yeast, 15% sucrose, 2% agar; 5% SY: 5% yeast, 5% sucrose, 2% agar as per Ref.^20). In all trials, ˜20 males with ˜20 females were placed into each of 10 vials/treatment group. Every two days, flies were passed into new vials and dead flies were counted. […] Final compound concentrations were 0, 10, 100 or 200 μM. Fresh stock solution and adult media was prepared weekly.

recombinant human SIRT1 = biological target: T2, recombinant human SIRT1 (Homo sapiens, UniProt Q96EB6); experiment: SIRT1 fluorescent deacetylation assay (p53-382 acetylated peptide); format: biochemical
T2 sequence (Q96EB6 1-747): T1 sequence (Q96EB6 1-747)

S. cerevisiae = experiment: Yeast replicative lifespan by micro-manipulation; format: cell-based; conditions: 10 μM
Method: Average lifespan for wild type, 22.9 generations, quercetin, 23.4; piceatannol.
Lifespan measurements were performed using PSY316AT MATα as previously described^35. All compounds for lifespan analyses were dissolved in 95% ethanol and plates were dried and used within 24 hours. Prior to lifespan analysis, cells were pre-incubated on their respective media for at least 15 hours. Following transfer to a new plate, cells were equilibrated on the medium for a minimum of 4 hours prior to micro-manipulating them. At least 30 cells were examined per experiment and each experiment was performed at least twice. Statistical significance of lifespan differences was determined using the Wilcoxon rank sum test. Differences are stated to be significant when the confidence is higher than 95%.

[3] = biological target: p53-382 acetylated peptide substrate ('Fluor de Lys-SIRT1', BIOMOL) (human) (UniProt P04637)
[4] = tested on: TNF-alpha treated adipocytes; experiment: Radioactive glucose uptake in TNF-alpha treated insulin resistant adipocytes; format: cell-based; conditions: resveratrol 5 μM or 15 μM; roziglitazone 4 μM

Compound: NC(=O)c1ncn([C@@H]2O[C@H](CO)[C@@H](O)[C@H]2O)c1N [AICAR, 5-aminoimidazole-4-carboxamide-1-beta-D-ribofuranoside]
14C-CO2 production (nmol/hr/10^6 cells) (Fold Effect) (HepG2 cells): 5 fold
14C-CO2 production (nmol/hr/10^6 cells) (Fold Effect) (H4IIEC3 cells): 2.3 fold
Phosphorylation of AMPK and ACC [1]: stimulates phosphorylation of AMPK and ACC

Compound: COc1ccc(/C=C/c2cc(O)cc(O)c2)cc1 [BML-233, 3,5-Dihydroxy-4′-methoxy-trans-stilbene]
Activation of SIRT1 [2]: 2.1 fold

Compound: CN(C)C(=N)N=C(N)N [Metformin]
14C-CO2 production (nmol/hr/10^6 cells) (Fold Effect) (HepG2 cells): 3.5 fold
14C-CO2 production (nmol/hr/10^6 cells) (Fold Effect) (H4IIEC3 cells): 2 fold

Activation of SIRT1 [2]: 3.28 fold
Compound: Oc1cc(O)cc(/C=C/c2ccccc2)c1 [Pinosylvin, 3,5-Dihydroxy-trans-stilbene]

Compound: C(=C/c1ccccc1)/c1ccccc1 [cis-stilbene, cis-Stilbene]
Fat staining (C. elegans; 100 μM, 48 hours, control 2.5% v/v DMSO): No significant effect

Compound: O=c1c(O)c(-c2ccc(O)c(O)c2)oc2cc(O)ccc12 [fisetin, 3,7,3′,4′-Tetrahyddroxyflavone]
Longevity under restricted diet (D. melanogaster; restricted diet): neither resveratrol nor fisetin further increased longevity
Lifespan extension (D. melanogaster; wild type strains, males and females, independent tests, maximum): up to 23%
Fat mobilization (C. elegans; 100 μM, 48 hours): stimulate fat mobilization
Concentration as low as which fat accumulation is reduced (C. elegans; 48 hours): 10 µM

Vmax decrease (recombinant human SIRT1; 50 μM nicotinamide, absence of resveratrol, two determinations (varying NAD+ or p53-382 peptide)): 30% and 36%
Compound: NC(=O)c1cccnc1 [nicotinamide]
Fat accumulation (C. elegans; 0, 1 or 10 mM nicotinamide, overnight): concentration dependent increase in fat accumulation

Stimulation of SIRT1 activity (recombinant human SIRT1; initial screen (Table 1, 100 μM)): eight
Compound: Oc1cc(O)cc(/C=C/c2ccc(O)c(O)c2)c1 [piceatannol, 3,5,3′,4′-Tetrahydroxy-trans-stilbene]
Effect on lifespan (in words) (S. cerevisiae): no significant effect
Fat mobilization (C. elegans; 100 μM, 48 hours): stimulate fat mobilization

Compound: O=c1c(O)c(-c2ccc(O)c(O)c2)oc2cc(O)cc(O)c12 [quercetin, 3,5,7,3′,4′-Pentahydroxyflavone]
Effect on lifespan (in words) (S. cerevisiae): no significant effect
Fat mobilization (C. elegans; 100 μM, 48 hours): stimulate fat mobilization
Concentration as low as which fat accumulation is reduced (C. elegans; 48 hours): 10 µM

Km for the p53-382 acetylated peptide (SIRT1 initial deacetylation rate, fluorescence) [3]: 64 µM
Compound: His6-tagged recombinant SIRT1 (from UniProt Q96EB6) (enzyme)

Compound: roziglitazone
Insulin sensitivity (radioactive glucose uptake) [4]: increases the uptake of radioactive glucose
